Results on 2 molecules are retold here after patent US20220133747A1, “ESTROGEN RECEPTOR INHIBITORS AND USES THEROF” (The Regents of the University of California, priority 2018, published 2022).

Entries after “also recorded” stand apart in the source; their conditions may differ. Where two headings read alike, the source gives them in different places.

Assay [1] has as its system myeloid-derived suppressor cells (MDSC). Description: Expansion of human MDSC from bone marrow of BC patients, flow cytometry. The conditions noted are these: 1 μM in normal medium with GM-CSF and IL-6, 5-6 days. The class given is cell-based. The source says:
Bone Marrow cells from three breast cancer patients were purified by established methods including red blood cell lysis and Ficoll gradients (1-3,5, 5-7) and then cultured in the presence of IL-6 and GM-CSF in either estrogen-free medium (EFM), normal medium with control vehicle (NM) (which contains estrogens), normal medium with 1-μM fulvestrant (NM+FULV) or normal medium with 1-μM S128 (NM+S128). After 5 days, myeloid-derived cell populations were then identified by following the gating strategy of Ruffell et al. (2) as modified by Svoronos et al. (1). A) Percentage of total MDSC within CD45^+ population.
Total number of human MDSC derived from bone marrow (BM) of three of three BC patients (P<0.05). Cells were incubated in the presence of GM-CSF and IL-6 for 6 days in either regular RPMI medium+15% FBS (NM) (contains estrogens) or in phenol red-free medium with 15% charcoal coated-dextran treated FBS (EFM)(estrogen-depleted) with or without the addition of 100 nM estradiol-17β (EFM+E2). Normal cell culture medium (NM) drives E2-dependent signaling due to the presence of various estrogens in FBS as well as the estrogenic properties of phenol red. These effects were inhibited by the SERDs fulvestrant (FULV) and S128 at 1 μM
FIGS. 22A-22B show expansion of MDSCs is dependent on estrogen signaling and reversed by antiestrogens. […]
Human myeloid-derived suppressor cells were expanded from bone marrow (BM) specimens of BC patients after standard Ficoll gradient purification and red blood cell lysis. […] After 6 days of culture, cells were harvested, stained with a 14 antibody panel including anti-phospho-STAT3 (pSTAT3) and analyzed by flow cytometry with an LSRII with a 5 lasers (UV, violet, blue, green-yellow and red). […]

The test system of assay [2] is immune cell subsets in 4T1 tumors. Description: Mass cytometry (CyTOF) of immune cell subsets in 4T1 tumors. The format is in vivo, BALB/c mice. The protocol:
Single cell suspensions were prepared from 4T1 tumors grown in BALC/c mice treated for 12 days with control (CON), 100 μg of anti-PD-L1 antibody Q3 days (PD-L1), 50 mg/kg SERD128 via oral gavage (SERD128) or combined (PD-L1+SERD128). Cells were labeled with specific antibodies and analyzed by mass cytometry (cyTOF).
Cells were labeled with specific antibodies and analyzed by mass cytometry (CyTOF).
Tumors from each mouse were harvested after 10-12 days of treatment as described above. Single cell suspensions were generated from tumors using the MACS mouse tumor dissociation kit (Miltenyi Biotech Cat. 130-096-730) following manufacturer's instructions. One million cells per tumor were resuspended in PBS and labeled with Cell-ID Cisplatin (Fluidigm, Cat. 201064) to assess for live/dead cells. For antibody labeling, we used the recommended cell surface staining procedure (Fluidigm) followed by the FoxP3/Transcription Staining Buffer Set protocol (eBiosciences™). Cells were labeled with a panel of 28 metal-conjugated antibodies to determine different immune lineages in addition to memory, trafficking, activation, and exhaustion markers (see Tables 2-3 for list of antibodies). After washing and centrifugation, cells were fixed using MaxPar Fix and Perm buffer (Fluidigm, Cat. 201067) and labelled for single cell discrimination with Cell-ID Intercalator-Ir (Fluidigm, Cat. 201192A). Samples were resuspended with 10% EQ four-element calibration beads (Fluidigm, Cat. 201078), and filtered through a 40 μm mesh filter prior to acquisition on a HELIOS' mass cytometer (Fluidigm), at a rate of 300-500 events/s.
Collected mass cytometry data was analyzed as previously described. Briefly, samples were normalized utilizing a bead standard. First, each cytometry file was processed in FLOWJO (v10.3), then manually gated for stability of signal over time, followed by exclusion of normalization beads, ratio of DNA intercalators (191Ir+vs 193Ir+), with finally single cell events (Ir193 vs event length) (FIG. 24A). After that, viable (195Pt−)CD45+ events were exported and uploaded into the X-shift (VorteX) clustering environment to obtain the k-nearest-neighbor density estimation as described before. Dimensionality reduction of unclustered data was performed using the t-stochastic neighborhood embedding (t-SNE) and PhenoGraph algorithms implemented in the Cytofkit library, supplied by BIOCONDUCTOR v.3.4 and run in RSTUDIO v.1.1.463. A fixed number of 10,000 cells were sampled without replacement from each file and combined for analysis. Resulting t-SNE plots were subsequently filtered by marker expression to visualize differences between different treatment groups. Heatmaps were generated using Z-scores based on median marker expression (excel and Prism v7).

Take `C[C@]12CC[C@@H]3c4ccc(O)cc4C[C@@H](CCCCCCCCC[S+]([O-])CCCC(F)(F)C(F)(F)F)[C@H]3[C@@H]1CC[C@@H]2O` (some centres unmarked) [fulvestrant, reference compound]: the “total MDSC numbers (expansion of MDSC)” value in assay [1] is listed as “substantially decreased; also recorded: significantly inhibited; also recorded: block E2-induced expansion of MDSCs”. In assay [2], the “total dendritic cells (CD11c+MHCII+)” value was “increased the population of DCs in 4T1 tumors”.

With `C[C@]12C[C@H](Oc3ccc(N)c(C(F)(F)F)c3)[C@@H]3c4ccc(O)cc4CC[C@H]3[C@@H]1CC[C@@H]2O` [SERD128, (8S,9S,11S,13S,14S,17S)-11-(4-Amino-3-(trifluoromethyl)phenoxy)-13-methyl-7,8,9,11,12,13,14,15,16,17-decahydro-6H-cyclopenta[a]phenanthrene-3,17-diol], the “total MDSC numbers (expansion of MDSC)” value in assay [1] is “significantly inhibited; also recorded: inhibits expansion and activation; also recorded: block E2-induced expansion of MDSCs; also recorded: exceeds that of fulvestrant at equivalent doses”. The “total MDSC numbers (expansion of MDSC)” value in assay [1] (listed as S128) is given as “substantially decreased; also recorded: inhibited; also recorded: inhibits E2-induced expansion of MDSC”. Moreover, in assay [2], the “B regulatory cells (CD19+ CD25+ CD69+, gated on CD19+)” value is “decreases expression of B regulatory cells; also recorded: decrease expression of this subpopulation”; the “M1 macrophages (MHCII high)” value is “increase in the M1 tumoricidal population of macrophages; also recorded: increases the ER+M1-tumoricidal subset of macrophages”; the “M2 macrophages (MHCII low)” value was “notable decrease in the M2 phenotype; also recorded: reduces the M2-phenotype”; the “markers of CD8+ TIL activation and/or proliferation” value was “promotes enhanced proliferation and activation of CD8^+ T-cells”. Also, in assay [2], the “stimulatory/myeloid dendritic cells (mDCs)” value is “increase expression of total dendritic cells (DC) and their stimulatory/myeloid subgroup; also recorded: increased population of mDCs”; the “total dendritic cells (CD11c+MHCII+)” value is given as “increase expression of total dendritic cells; also recorded: increased population of mDCs in 4T1 tumors as well as the total population of DCs”. The “markers of CD8+ TIL activation and/or proliferation” value in assay [2] (listed as S128) is listed as “increased”.
